Measurements as given in US20110105408A1, “THERAPEUTIC PEPTIDES” (INTER-K PTY LIMITED, priority 2008, published 2011).
“Also recorded” adds a separate entry of the source. No end group written: not given here.

Key:
[1] = tested on: HT29 colon cancer cells; assay: Cell proliferation (MTT) assay, HT29 cells; format: cell-based, human; settings: 24 hour incubation period
[2] = tested on: HT29 colon cancer cells; assay: Cell proliferation (MTT) assay, HT29 cells; format: cell-based, human; settings: for inhibition of proliferation of HT29 cells (MTT): 48 hours culture with dendrimer
Experimental: (§1) Single cell suspensions of viable trypsinised cells were seeded into 96-well tissue culture plates at a density of 2×10^3 cells per well in a volume of 100 μl of a suitable culture media with foetal calf serum (FCS) (e.g., Dulbecco's Modified Eagles Medium (DMEM), with 10% v/v FCS, glutamine, Hepes, and antibiotics). A set of triplicate wells was prepared for each concentration of the peptide dendrimer being tested. Additional sample wells containing untreated cells or media alone were set up in each treatment plate and processed in parallel as reference controls. A zero-time plate of untreated cells and media-alone wells was simultaneously prepared and an MTT assay carried out on this plate at the time of test peptide dendrimer addition to treatment plates. All plates were cultured for 24 hours before addition of the test dendrimer. To prepare the MTT solution 100 mg of MTT (3-(4,5-dimethylthiazolyl-2)-2,5-diphenyltetrazolium bromide) (Cat #. M-128, Sigma, St Louis Mo.), is mixed with 20 ml of PBS at pH 7.4. The resulting solution is filter sterilized (0.2 μM syringe filter) and stored at 4° C. protected from light until use. MTT substrate is cleaved in growing cells to yield a water insoluble salt. After solubilisation of the salt crystals, a coloured product is produced the measurement of which allows quantitation of the proliferative activity of the cultured cells.
Appropriate concentrations of the test dendrimer were prepared by dilution of freshly prepared sterile 1 mM stock solutions into cell culture media to give a final well volume of 200 μl containing 10% v/v FCS. The zero-plate was processed by addition of MTT at this time. Cell culture was continued for a further 24 or 48 hours before addition of 20 μl of MTT in PBS (5 mg/ml, 0.2 um filter sterilised). The MTT cell proliferation assay measures cell proliferation rate and, in instances where cell viability is compromised, the assay indicates a comparative reduction in cell viability. After a 3 hour incubation in the presence of MTT (5% CO2 in air at 37° C.), plates were centifuged at 450 g for 5 minutes, supernatant removed by gentle suction and precipitated tetrazolium salt resuspended into 150 μl DMSO:glycine (0.1 M glycine, 0.1 M NaCl pH 10.5) (6:1 v/v) solution. Plates were gently vortexed to complete solubilisation of crystalline material and absorbance was read at 540-550 nm using a microplate reader. Sample data were processed to determine the comparative growth of treated samples relative to untreated controls.
HT29 cells were cultured for 48 hours in the presence of selected dendrimers and proliferation of the cells was assessed by MTT assay essentially as described in Example 1.2. The results were calculated as percentage proliferation of control cells (not treated with dendrimer).

[3] = tested on: MKN45 gastric carcinoma cells; assay: Cell proliferation (MTT) assay, MKN45 cells; format: cell-based; settings: 48 hours incubation
Experimental: as §1, with “To prepare the MTT solution 100 mg of MTT (3-(4,5-dimethylthiazolyl-2)-2,5-diphenyltetrazolium bromide) (Cat #. M-128, Sigma, St Louis Mo.), is mixed with 20 ml of PBS at pH 7.4. The resulting solution is filter sterilized (0.2 μM syringe filter) and stored at 4° C. protected from light until use. MTT substrate is cleaved in growing cells to yield a water insoluble salt.” left out
(§2) Appropriate concentrations of the test dendrimer were prepared by dilution of freshly prepared sterile 1 mM stock solutions into cell culture media to give a final well volume of 200 μl containing 10% v/v FCS. […] Plates were gently vortexed to complete solubilisation of crystalline material and absorbance was read at 540-550 nm using a microplate reader. […]

[4] = tested on: MCF-7 breast cancer cells; assay: Cell proliferation (MTT) assay, MCF-7 cells; format: cell-based; settings: 48 hours incubation
Experimental: as §1, with “To prepare the MTT solution 100 mg of MTT (3-(4,5-dimethylthiazolyl-2)-2,5-diphenyltetrazolium bromide) (Cat #. M-128, Sigma, St Louis Mo.), is mixed with 20 ml of PBS at pH 7.4. The resulting solution is filter sterilized (0.2 μM syringe filter) and stored at 4° C. protected from light until use. MTT substrate is cleaved in growing cells to yield a water insoluble salt.” left out
as §2

[5] = tested on: DU145 prostate cancer cells; assay: Cell proliferation (MTT) assay, DU145 cells; format: cell-based; settings: 48 hours incubation
Experimental: as §1, with “To prepare the MTT solution 100 mg of MTT (3-(4,5-dimethylthiazolyl-2)-2,5-diphenyltetrazolium bromide) (Cat #. M-128, Sigma, St Louis Mo.), is mixed with 20 ml of PBS at pH 7.4. The resulting solution is filter sterilized (0.2 μM syringe filter) and stored at 4° C. protected from light until use. MTT substrate is cleaved in growing cells to yield a water insoluble salt.” left out
as §2

[6] = tested on: phospho-ERK in HT29 cells; assay: Phospho-ERK ELISA (FACE ERK1/2 kit) in HT29 cells; format: cell-based, human
Experimental: (§3) HT29 cells were harvested using 0.5% trypsin EDTA (Invitrogen) and 5000 cells were resuspended into 200 μL, and added to each well of a clear NUNC tissue culture treated 96 well plate (NUNC). Cells were seeded in DMEM media (Invitrogen) supplemented with 10% v/v foetal calf serum (FCS, Invitrogen), 1% L-Glutamine (Invitrogen) and 2% 1M HEPES buffer solution (Invitrogen). Cells were then incubated overnight at 37° C. The following day, the growth medium was replaced with 100 μL of serum-free DMEM supplemented with 1% L-glutamine and 2% 1M HEPES buffer solution, and incubated for a further 24 hours at 37° C. Dendrimers were added to test wells in serum free medium to provide final concentrations of the dendrimers ranging from 0.1-20 μLA. The total volume of each well was 200 uL, and cells were incubated at 37° C. for times ranging from 5 minutes to 4 hours. In those studies in which cells were subjected to stimulation by serum, 22 μL FCS (10% v/v final concentration) was added to wells for the final ten minutes of the culture period at 37° C. Serum-free media (SFM) only (22 μL) was added to non-serum stimulated cells.
Phospho-ERK levels were determined using the FACE ERK1/2 ELISA kit according to the manufacturer's instructions (Active Motif, kit obtained from Australian Biosearch, WA, Australia). Briefly, media was replaced and cells fixed with 4% formaldehyde in PBS, and after a 1 hour with antibody blocking buffer (supplied), the primary phospho-ERK or total-ERK antibody was added and incubated overnight at 4° C. Antibody dilution buffer only was added to control test wells containing no primary antibody. The next day, HRP-conjugated secondary antibody was added for one hour before plates were developed and the absorbance measured at 450 nm using a Labsystems Multiskan EX microplate reader (Labsystems, Thermo Labsystems, UK).
The effectiveness of the peptide dendrimer IK248 described in Example 2 in inhibiting growth factor mediated activation of ERK in HT29 cancer cells (i.e., (FCS stimulated) compared to various agents comprising the polypeptide RSKAKNPLYR (SEQ ID No. 6) coupled to different peptide facilitator moieties for facilitating passage of the polypeptide across the plasma cell membrane into the cytosol of the cells was evaluated. Phospho-ERK levels in the cells following treatment with 5 μM IK248 (Dend 8) for 1 hour or polypeptide-facilitator moiety agents (each at 5 μM for the same duration) were measured essentially as described in Example 1.3. The facilitator moieties utilised were the signal peptide fragment AAVALLPAVLLALLA (SEQ ID No. 16), the TAT-G peptide GRKKRRQRRRPPQG (SEQ ID No. 17), a modified pentratin sequence Tr-Pen RRQKWKKG (SEQ ID No. 18), and the penetratin peptide RQIKIWFQNRRMKWKKCS—SC (SEQ ID No. 19) wherein S—S indicates a disulphide bridge between the adjacent cysteine residues.
The peptide RSKAKNPLYR (SEQ ID. No. 6) or peptide dendrimers of the type illustrated in FIG. 3 comprising lysine branching units presenting either 8 (IK248) or 10 (IK248B) monomer units of the peptide RSKAKNPLYR (SEQ ID No. 6) were utilised in this study. Phospho-ERK levels were evaluated by ELISA utilising an Active Motif FACE ERK1/2 ELISA kit (Australian Biosearch, WA, Australia) as described in Example 1.3.

[7] = tested on: total ERK in HT29 cells; assay: Total-ERK ELISA in HT29 cells; format: cell-based, human; settings: HT29 cells treated with the dendrimer
Experimental: as §3, with “In those studies in which cells were subjected to stimulation by serum, 22 μL FCS (10% v/v final concentration) was added to wells for the final ten minutes of the culture period at 37° C. Serum-free media (SFM) only (22 μL) was added to non-serum stimulated cells.” left out
Phospho-ERK levels were determined using the FACE ERK1/2 ELISA kit according to the manufacturer's instructions (Active Motif, kit obtained from Australian Biosearch, WA, Australia). […] The next day, HRP-conjugated secondary antibody was added for one hour before plates were developed and the absorbance measured at 450 nm using a Labsystems Multiskan EX microplate reader (Labsystems, Thermo Labsystems, UK).

Dend 4: peptide dendrimer comprising 4 monomer units of the polypeptide RSKAKNPLYR (SEQ ID No. 6) (also: dendrimer of 4 peptide copies)
inhibition of proliferation of HT29 colon cancer cells (MTT) [1]: inhibit proliferation of HT29 colon cancer cells

Dend 9 10(4): dendrimer presenting 9 monomer units of the peptide RSKAKNPLYR (SEQ ID No. 6) (also: dendrimer of 9 peptide copies)
inhibition of proliferation of HT29 cells (MTT) [2]: Dend 12 was more effective than Dend 9

dendrimer presenting 12 monomer units of the peptide RSKAKNPLYR (SEQ ID No. 6) (also: dendrimer of 12 peptide copies) [Dend 12 10(4)]
inhibition of proliferation of HT29 cells (MTT) [2]: more effective than Dend 9 | IC50 ([2]; 48 hours, MTT): 1000 nM | dendrimer concentration required for total kill ([2]; HT29 cells, 48 hours, MTT): 10 µM

CC(C)C[C@H](NC(=O)[C@@H]1CCCN1C(=O)[C@H](CC(N)=O)NC(=O)[C@H](CCCCN)NC(=O)[C@H](C)NC(=O)[C@H](CCCCN)NC(=O)[C@H](CO)NC(=O)[C@@H](N)CCCNC(=N)N)C(=O)N[C@@H](Cc1ccc(O)cc1)C(=O)N[C@@H](CCCNC(=N)N)C(=O)NCCCC[C@H](NC(=O)[C@H](CCCNC(=N)N)NC(=O)[C@H](Cc1ccc(O)cc1)NC(=O)[C@H](CC(C)C)NC(=O)[C@@H]1CCCN1C(=O)[C@H](CC(N)=O)NC(=O)[C@H](CCCCN)NC(=O)[C@H](C)NC(=O)[C@H](CCCCN)NC(=O)[C@H](CO)NC(=O)[C@@H](N)CCCNC(=N)N)C(=O)NCCCC[C@H](NC(=O)[C@H](CCCCNC(=O)[C@H](CCCNC(=N)N)NC(=O)[C@H](Cc1ccc(O)cc1)NC(=O)[C@H](CC(C)C)NC(=O)[C@@H]1CCCN1C(=O)[C@H](CC(N)=O)NC(=O)[C@H](CCCCN)NC(=O)[C@H](C)NC(=O)[C@H](CCCCN)NC(=O)[C@H](CO)NC(=O)[C@@H](N)CCCNC(=N)N)NC(=O)[C@H](CCCNC(=N)N)NC(=O)[C@H](Cc1ccc(O)cc1)NC(=O)[C@H](CC(C)C)NC(=O)[C@@H]1CCCN1C(=O)[C@H](CC(N)=O)NC(=O)[C@H](CCCCN)NC(=O)[C@H](C)NC(=O)[C@H](CCCCN)NC(=O)[C@H](CO)NC(=O)[C@@H](N)CCCNC(=N)N)C(=O)NCCCC[C@H](NC(=O)[C@H](CCCCNC(=O)[C@H](CCCCNC(=O)[C@H](CCCNC(=N)N)NC(=O)[C@H](Cc1ccc(O)cc1)NC(=O)[C@H](CC(C)C)NC(=O)[C@@H]1CCCN1C(=O)[C@H](CC(N)=O)NC(=O)[C@H](CCCCN)NC(=O)[C@H](C)NC(=O)[C@H](CCCCN)NC(=O)[C@H](CO)NC(=O)[C@@H](N)CCCNC(=N)N)NC(=O)[C@H](CCCNC(=N)N)NC(=O)[C@H](Cc1ccc(O)cc1)NC(=O)[C@H](CC(C)C)NC(=O)[C@@H]1CCCN1C(=O)[C@H](CC(N)=O)NC(=O)[C@H](CCCCN)NC(=O)[C@H](C)NC(=O)[C@H](CCCCN)NC(=O)[C@H](CO)NC(=O)[C@@H](N)CCCNC(=N)N)NC(=O)[C@H](CCCCNC(=O)[C@H](CCCNC(=N)N)NC(=O)[C@H](Cc1ccc(O)cc1)NC(=O)[C@H](CC(C)C)NC(=O)[C@@H]1CCCN1C(=O)[C@H](CC(N)=O)NC(=O)[C@H](CCCCN)NC(=O)[C@H](C)NC(=O)[C@H](CCCCN)NC(=O)[C@H](CO)NC(=O)[C@@H](N)CCCNC(=N)N)NC(=O)[C@H](CCCNC(=N)N)NC(=O)[C@H](Cc1ccc(O)cc1)NC(=O)[C@H](CC(C)C)NC(=O)[C@@H]1CCCN1C(=O)[C@H](CC(N)=O)NC(=O)[C@H](CCCCN)NC(=O)[C@H](C)NC(=O)[C@H](CCCCN)NC(=O)[C@H](CO)NC(=O)[C@@H](N)CCCNC(=N)N)C(=O)NCCC(N)=O [IK248]
inhibition of growth/proliferation of MKN45 gastric carcinoma cells [3]: inhibited growth/proliferation | inhibition of growth/proliferation of MCF-7 breast cancer cells [4]: inhibited growth/proliferation | inhibition of growth/proliferation of DU145 prostate cancer cells [5]: inhibited growth/proliferation | greater inhibition of activated phospho-ERK than the closest test agent (TAT-G RSKAKNPLYR) ([6]; 5 μM, 1 hour, FCS stimulated HT29 cells): at least 30% | inhibition of activated phospho-ERK ([6]; 5 μM, 4 hours, FCS stimulated HT29 cells (data not shown)): approx. 95% | phospho-ERK level in FCS stimulated cells ([6]; HI FCS stimulated, 20 μM, 1 hour incubation): lower than in non-FCS stimulated cells treated with the dendrimer, but remained higher than phospho-ERK basal levels in control cells not treated with the dendrimer | basal phospho-ERK level relative to control cells ([6]; not FCS stimulated, 1 μM-10 μM, 4 hr incubation): incease relative to control cells | basal phospho-ERK level compared to control cells, time course ([6]; not FCS stimulated, 5 μM, 5, 10 and 30 minutes, and 1 hour): markedly increased phospho-ERK levels at all time points evaluated | total ERK levels [7]: remained essentially unaffected | inhibition of proliferation of HT29 colon cancer cells (MTT) [1]: inhibit proliferation of HT29 colon cancer cells; also recorded: substantially more effective at inhibiting cell growth/proliferation than the peptide dendrimer comprising 4 monomers of the polypeptide

Dend8 β3: peptide dendrimer presenting 8 monomer units of the β3 based peptide RARAKNPLYK (SEQ ID No. 7) (also: dendrimer of 8 peptide copies)
inhibition of proliferation of HT29 cells (MTT) [2]: inhibited proliferation of the HT29 cancer cells

Dend8 β5: peptide dendrimer presenting 8 monomer units of the β5 based peptide RSRARNPLYR (SEQ ID No. 8) (also: dendrimer of 8 peptide copies)
inhibition of proliferation of HT29 cells (MTT) [2]: inhibited proliferation of the HT29 cancer cells; also recorded: more effective
